This note sets out measurements from patent publication US7795239B2, “Saccharide compositions and method of use” (Mueller Medical International LLC, priority 1992, dated 2010).

Details of the data set: AUC for Cimetidine / AUC for Ranitidine: unit not given beside the values. The following applies: in vivo.

As for `CN/C(=N/CCSCc1nc[nH]c1C)NC#N` [cimetidine], the “AUC for Cimetidine” value was found to be 54.3 and the “dissolved drug not absorbed from the GI tract into the blood stream” value (“dissolved drug not absorbed” below) was 15-20%. Turning to `NC(N)=Nc1nc(CSCCC(N)=NS(N)(=O)=O)cs1` [famotidine], the “dissolved drug not absorbed” value is listed as 15-20%. Consider `CNC(=C[N+](=O)[O-])NCCSCc1ccc(CN(C)C)o1` [ranitidine], for which the “AUC for Ranitidine” value stood at 55.2 and the “dissolved drug not absorbed” value is 15-20%.
